# Reference: US12466792B2 (priority 2021, dated 2025)
# Tests used:
# SARS-COV-2 3CLpro = SARS-COV-2 3CLpro (Severe acute respiratory syndrome coronavirus 2, UniProt P0DTD1); experiment: biochemical
# SARS-COV-2 = experiment: microbe, parasite or virus in culture; type: cell-based; conditions: Severe acute respiratory syndrome coronavirus 2, 72 h, read-out: ID50 (Antiviral Data)
SMILES,IC50 (SARS-COV-2 3CLpro) [nM],IC50 (SARS-COV-2) [nM]
CC(C)C[C@@H](C(=O)N[C@H](C#N)C[C@@H]1CCNC1=O)N(C)C(=O)[C@@H](NC(=O)C(F)(F)F)C(C)(C)C,0.1 to 999,10100 to 100000
CC(C)C[C@H](NC(=O)OCc1ccccc1)C(=O)N[C@H](C#N)C[C@@H]1CCCNC1=O,0.1 to 999,1000 to 10000
CC(C)C[C@H](NC(=O)OCc1ccccn1)C(=O)N[C@H](C#N)C[C@@H]1CCCNC1=O,0.1 to 999,> 100000
CC(C)C[C@H](NC(=O)OCc1cccnc1)C(=O)N[C@H](C#N)C[C@@H]1CCCNC1=O,0.1 to 999,> 100000
C=CCN(C(=O)c1cc2c(OC)cccc2[nH]1)[C@@H](CC(C)C)C(=O)N[C@H](C#N)C[C@@H]1CCNC1=O,0.1 to 999,> 100000
CC(C)C[C@H](NC(=O)OCc1ccncc1)C(=O)N[C@H](C#N)C[C@@H]1CCCNC1=O,0.1 to 999,> 100000
COc1cccc2[nH]c(C(=O)N(C)[C@@H](CC(C)C)C(=O)N[C@H](C#N)C[C@@H]3CCNC3=O)cc12,0.1 to 999,> 100000
CC(C)C[C@H](NC(=O)OCc1ccncc1)C(=O)N[C@H](C#N)C[C@@H]1CCNC1=O,0.1 to 999,> 100000
CC(C)C[C@@H](C(=O)N[C@H](C#N)C[C@@H]1CCNC1=O)N(C)C(=O)[C@@H](NC(=O)C(F)(F)F)C(C)C,1000 to 10000,10100 to 100000
COc1cccc2[nH]c(C(=O)N[C@@H](CC(C)C)C(=O)N[C@H](C#N)C[C@@H]3CCCNC3=O)cc12,1000 to 10000,10100 to 100000
